Measurements from patent publication US9242883B2, “Pre-treatment of sludge” (THE UNIVERSITY OF QUEENSLAND, priority 2011, dated 2016).
Where “and” joins values, the source holds several entries; their conditions need not be identical. Equal entries are not always repeated. Where two headings read alike, the source gives them in different places.

What was measured:
[1] = test system: denitrifying biomass; conditions: for methanol consumption rate / nitrate consumption rate / methanol consumption rate, activity recovery / nitrate consumption rate, activity recovery: experimental reactor
Protocol: Methanol provided the carbon source and nitrate provided the electron acceptor. The following procedure was followed:
1. Sludge removed from the denitrifying SBR (sequencing batch reactor). The biomass was enriched for 5 months in an 8 L reactor with methanol as the carbon source and nitrate as the electron acceptor.
2. A batch experiment was performed at pH 6 for initial biomass activity determination. At the beginning of the test, nitrate and methanol were added. Liquid phase samples were taken every 15 minutes for the analysis of nitrate and methanol. The consumption rates of methanol and nitrate were determined. All other batch tests described below were also conducted at pH 6. 3. Fresh sludge of 2 L was removed from the SBR at the end of a cycle, and equally divided into two batch reactors, namely the control and the experimental reactors. • a. The sludge in the control reactor was kept at pH 6 under mixed conditions for 48 hours; • b. The sludge in the experimental reactor was kept at pH 6 under mixed conditions for 48 hours. […] 4. 24 hours after the above conditions were started, sludge samples of 250 mL each were removed from both the control and the experimental reactors, and batch experiments as described in Step 2 were performed. Before the addition of nitrate and methanol, the sludges were washed with effluent from the parent SBR to ensure that both sludge samples were nitrite-free. 5. The above tests were repeated at 48 hours. 6. Sludge samples were also removed at 48 hours from both reactors to quantify the live/dead cells using the Live/Dead BacLight Bacterial Viability assay. 7. At 48 hours, the experimental reactor was washed with the effluent from the parent SBR to remove the residual nitrite. Nitrate and methanol were then added to the reactor resulting in concentrations of […] and 150 mg/L, respectively. The methanol and nitrate consumptions rates at the end of Day 3, Day 4 and Day 7 were measured through measuring the nitrate and methanol concentrations over a period over one hour each time. […] Experiments with Full-Scale Sludge

[2] = test system: denitrifying biomass; conditions: methanol sludge, experimental reactor, 48 hours, FNA approx. 0.97 ppm, pH 6; 16 images
Protocol: 2. A batch experiment was performed at pH 6 for initial biomass activity determination. At the beginning of the test, nitrate and methanol were added. Liquid phase samples were taken every 15 minutes for the analysis of nitrate and methanol. The consumption rates of methanol and nitrate were determined. All other batch tests described below were also conducted at pH 6. 3. Fresh sludge of 2 L was removed from the SBR at the end of a cycle, and equally divided into two batch reactors, namely the control and the experimental reactors. • a. The sludge in the control reactor was kept at pH 6 under mixed conditions for 48 hours; • b. The sludge in the experimental reactor was kept at pH 6 under mixed conditions for 48 hours. […] 4. 24 hours after the above conditions were started, sludge samples of 250 mL each were removed from both the control and the experimental reactors, and batch experiments as described in Step 2 were performed. […] Sludge samples were also removed at 48 hours from both reactors to quantify the live/dead cells using the Live/Dead BacLight Bacterial Viability assay. […] The methanol and nitrate consumptions rates at the end of Day 3, Day 4 and Day 7 were measured through measuring the nitrate and methanol concentrations over a period over one hour each time. […]

[3] = test system: bacteria in a full-scale sludge; conditions: FNA treated, 48 hours, 500 mgNO2-N/L, pH 6.0, 29 images
Protocol: Similar tests were performed on a full-scale sludge. However, no activity tests were carried out. […] The nitrite concentration applied to the experimental reactor was 500 mgNO2-N/L. pH was maintained at 6.0 in both the control and experimental reactors.

[4] = test system: secondary sludge (denitrifying microorganisms)
Protocol: (§1) In general, primary sludge is readily hydrolysable (Mahmood and Elliott, 2006; Foladori et al., 2010). […] A series of batch tests were conducted through the use of an enriched methonal-utilising denitrifiers culture, which was employed as secondary sludge in this study.

[5] = test system: secondary sludge (enriched methonal-utilising denitrifiers culture)
Protocol: as §1

[6] = Protocol: In this experiment, a lab-scale sequencing batch reactor (SBR) with a working volume of 8 L was used in this study. The SBR was operated with a cycle time of 6-h, consisting of 10 min anoxic feed, 70 min anoxic reaction, 225 min aerobic reaction, 5 min sludge wasting, 45 min settling and 5 min decanting periods. In each cycle, 2 L of synthetic wastewater containing 400 mg COD and 50 mgN/L TKN including 40 mgNH4+-N/L, made from milk powder and ammonium chloride, along with other trace elements, was pumped into the SBR in the 10 min feed period, resulting in a hydraulic retention time (HRT) of 24 h. Before settling, around 133 ml of mixed liquor was wasted, giving rise to a sludge retention time of 15 days. The SBR was operated at a temperature of 18±2° C., with DO being controlled between 1.5-2.0 mg/L by a programmable logic controller (PLC) in the aerobic period.
50% of the wasted mixed liquor was treated by 2.0 mg HNO2-N/L for approximately 24 h, 30 h, 36 h and 42 h, respectively.
The sludge wasted from the SBR was allowed to settle. […] The other 50% of the sludge was sent to disposal.
A control SBR operating under identical conditions was also fed with the same wastewater, but there was no recycle of any sludge to this reactor.

[7] = test system: secondary sludge; conditions: famine conditions, during FNA treatment (FIG. 4)
Source text: NH4+ release rate under famine conditions is an indication of the hydrolysis of intracellular compounds release during the decay of dying cells. This hydrolysis is taken place by the activity of other living microorganisms present in the sludge.

[8] = test system: AOB, NOB and OHOs; conditions: FNA 0.22-2.47 mgN/L, pH 6, 24 h exposure
Protocol: Sludge was taken out from the parent reactor (SBR) at the end of an aerobic period and then transferred into a batch reactor. Afterwards, ammonium and nitrite stock solutions were added to the batch reactor, resulting in the ammonium and nitrite concentrations of 25 mg NH4-N/L and 20 mg NO2-N/L, respectively. Air was supplied during the whole experiment period (DO was not limiting, i.e. >3 mg/L). pH was controlled in the range of 7.5-8 during the whole experimental period. The activities of AOB and NOB were determined as biomass-specific nitrite+nitrate and nitrate production rates, respectively.
Sludge was taken out from the parent reactor at the end of an aerobic period and then transferred into a batch reactor. Afterwards, sodium acetate and ammonium stock solutions were added to the batch reactor, resulting in the COD and ammonium concentrations of 150 mg COD/L and 20 NH4-N/L, respectively. Air was supplied during the whole experiment period (DO was not limiting, i.e. >3 mg/L). pH was controlled in the range of 7.5-8 during the whole experimental period. The aerobic activity of OHO was determined as biomass-specific COD consumption rates.
The experimental conditions applied in batch testing are set out in Table 6.

[9] = Day 1 of exposure, 500 mg NO2-N/L, pH 6, FNA approx. 0.97 ppm
[10] = Day 2 (48 h exposure; time when recovery started), FNA approx. 0.97 ppm, pH 6
[11] = Day 3, after 48 h FNA exposure and nitrite wash-out
[12] = Day 4, after 48 h FNA exposure and nitrite wash-out
[13] = Day 7, after 48 h FNA exposure and nitrite wash-out

In the case of `O=NO` [FNA, free nitrous acid], the “loss of biomass activity” value ([1]; FNA approximately 1 ppm for 48 hours) was 99%, the methanol consumption rate [1, 9] was 0.051 mg Methanol/gVSS*min and the nitrate consumption rate [1, 9] was 0.014 mg N—NO3^−/gVSS*min. For the same compound, the methanol consumption rate [1, 10] was 0.0 mg Methanol/gVSS*min and 0 mg Methanol/gVSS*min, the nitrate consumption rate [1, 10] was 0.004 mg N—NO3^−/gVSS*min and the “methanol consumption rate, activity recovery” value [1, 11] was 0.133 mg Methanol/gVSS*min. The “nitrate consumption rate, activity recovery” value [1, 11] was 0.004 mg N—NO3^−/gVSS*min, the “methanol consumption rate, activity recovery” value [1, 12] was 0.067 mg Methanol/gVSS*min and the “nitrate consumption rate, activity recovery” value [1, 12] was 0.022 mg N—NO3^−/gVSS*min. For the same compound, the “methanol consumption rate, activity recovery” value [1, 13] was 0.235 mg Methanol/gVSS*min, the “nitrate consumption rate, activity recovery” value [1, 13] was 0.089 mg N—NO3^−/gVSS*min and the “Average (% dead cells)” value [2] was 40.4%. For the same compound, the “Average (% dead cells)” value [3] was 63.6%, the “biomass (denitrification) activity recovery” value ([4]; longest exposure time to FNA, even at lowest FNA concentration) was “almost negligible” and the “biomass (denitrification) activity recovery” value ([4]; lower exposure time, 8 h to FNA) was “displays a recovery”. For the same compound, the “live cell fraction, effect of exposure time” value ([5]; 48 h of exposure vs shorter, biggest difference at highest FNA concentrations) was “Smaller live cell fraction”, the “fraction of viable cells, dependency on FNA concentration” value ([5]; exposure 8 h, 24 h, 48 h (FIG. 3)) was “decreased with increasing FNA concentration” and the “MLSS Predicted if FNA did not improve sludge degradability” value ([6]; FNA reactor, steady state) was 2369 mg/L. For the same compound, the “MLVSS Predicted if FNA did not improve sludge degradability” value ([6]; FNA reactor, steady state) was 2274 mg/L, the “FNA treated sludge degraded in the reactor” value ([6]; mass balance analysis of MLSS and MLVSS) was “approximately 75%” and the “NH4+ release rate, dependency on FNA concentration” value [7] was “decrease”. For the same compound, the “reduction of NOB and OHO compared to AOB” value [8] was “significantly greater reduction in NOB”.
